According to publication PMC11589483, “Preparation and anti-colon cancer effect of a novel curcumin analogue (CA8): in vivo and in vitro evaluation” (Frontiers in Pharmacology, 2024):

Key:
[1] = tested on: breast cancer cells MCF-7; experiment: MTT antiproliferative assay, MCF-7; assay type: cell-based; details: Homo sapiens
Procedure: (§1) The human cancer cell lines A549, HepG2, MCF-7, Caco-2, and HeLa and the normal human liver cell line LO2 were all obtained from Shanghai Cell Bank of China. All cells were cultured in RPMI 1640 or DMEM supplemented with 10% fetal bovine serum, 100 U/mL penicillin, and 100 μg/mL streptomycin and incubated at 37°C under 5% CO2 (HEPA incubator class100 Thermo company). The medium was replaced three times a week. Cells used in all were in the exponential growth phase.
(§2) The cell inhibition rate was evaluated using the MTT assay. Briefly, cells were seeded in a 96-well plate at a density of 3–4 × 10^3 cells per well and incubated at 37°C for 24 h. The MCACs to be tested were dissolved in dimethyl sulfoxide (DMSO, Merck, Germany) and diluted to five concentrations (3.75, 7.5, 15, 30, 60 μM/L) with RPMI 1640 medium, with each dose analyzed in quadruplicate. The concentration of DMSO was always maintained below 1‰, a concentration that is nontoxic to cells. After incubation for 24 or 48 h, MTT reagent (5 mg/mL) was added to each well and the samples were incubated for 3 h at 37°C in the dark. The absorbance of formazan crystals dissolved in 150 µL of DMSO was measured at 570 nm using a microplate reader to identify the cytotoxic effect of the analogues.

[2] = tested on: KM mice; experiment: Acute toxicity experiment; assay type: in vivo; design: ALT / AST / ALP / CREA / UA / UREA: unit not given here; details: for tolerated dose: male, KM, 8 days; for ALP / ALT / AST / CREA / UA / UREA: serum, KM mice, Mean ± SE, n = 3
Procedure: All in vivo experimental protocols were approved by the animal care committee of the Southwest Medical University and conducted in strict accordance with the laboratory animal care and use of the adopted guidelines. […] Twenty-one male KM mice were obtained from the Animal Center of Southwest Medical University and subjected to 1 week of acclimatization before the experiment. Then, the mice were randomly divided into the different groups. CA8 was administered via intraperitoneal injection and oral administration to assess its safety. The oral and injection doses were 5, 50, and 300 mg/kg and 2, 10, and 50 mg/kg, respectively. The body weight of all animals was recorded every day, and their blood samples were collected to analyze relevant biochemical indicators on the 8th day of the experiment. The heart, liver, and kidney tissues of the mice were collected, embedded in paraffin, cut into slices, stained with hematoxylin and eosin (HE), and observed under a light microscope to determine potential pathological changes.

[3] = Pharmacokinetics evaluation after gavage; assay type: in vivo, Sprague Dawley (SD) rats; details: SD rats
Procedure: After the evaluation of the safety of CA8, 10 male Sprague Dawley (SD) rats were randomly divided into the CA8 and CU groups for the pharmacokinetic test ([Ye et al., 2020]). The rats were subjected to 1 week of adaptation and were fasted for 6 h before the experiment. CA8 (50 mg kg^−1) and CU (50 mg kg^−1) were administered via gavage. Blood samples were collected at 0.03, 0.08, 0.16, 0.25, 0.5, 1, 2, 4, 8 and 12 h and centrifuged at 5,000 rpm for 3 min to obtain the plasma. A mixture of ethyl acetate and methanol was then added to precipitate the proteins and separate the CA8 and CU from the plasma. The samples were then analyzed using HPLC.

[4] = tested on: cervical cancer cells HeLa; experiment: MTT antiproliferative assay, HeLa; assay type: cell-based; details: Homo sapiens
Procedure: as §1, §2

[5] = tested on: Caco-2 xenograft tumors; experiment: In vivo anticancer activity, Caco-2 xenograft
Procedure: Twenty 5-week-old male BALB nude mice purchased from SPF (Beijing) Biotechnology Co., Ltd. were used for the in vivo pharmacodynamic experiment of CA8. Caco-2 cells (6 × 10^6 cells in 100 μL PBS) were harvested and subcutaneously injected into the right hip of the mice. Then, they were divided into four groups when the tumor volume reached 100 mm^3 and treated with saline, CU (100 mg/kg), tegafur (50 mg/kg), or CA8 (100 mg/kg) via gavage every other day. Tumor size and body weight were measured and recorded every other day. At the end of the experiment, the mice were sacrificed and tumors were harvested and weighed. Tumor volumes were calculated by measuring length (L) and width (W) according to the following formula: V = 0.5 × L × W^2. The tumor tissue was embedded in paraffin, cut into slices, stained with HE, and observed under a light microscope.

[6] = tested on: liver cancer cells HepG2; experiment: MTT antiproliferative assay, HepG2; assay type: cell-based; details: Homo sapiens
Procedure: as §1, §2

For `COc1cc(/C=C2\CN(C(C)C)C/C(=C\c3cc(OC)c(O)c(OC)c3)C2=O)cc(OC)c1O` [CA8], the IC50 ([1]; MCF7, 24 h) was 10.9 ± 4.21 µM, the IC50 ([1]; MCF7, 48 h) was 7.23 ± 1.55 µM and the “liver and kidney histopathology” value ([2]; different doses, HE staining) was “no significant pathological damage”. For the same compound, the tolerated dose ([2]; mouse, in vivo, ip) was at most 50 mg/kg, the tolerated dose ([2]; mouse, in vivo, po) was “up to 300 mg/kg” and the “morbidity, death, behavior” value ([2]; mouse, in vivo) was “No morbidities and deaths occurred”. The ALP ([2]; single injection dose 2 mg/kg) was 220.33 ± 47.16, the ALT ([2]; single injection dose 2 mg/kg) was 59.77 ± 3.00 and the AST ([2]; single injection dose 2 mg/kg) was 257.50 ± 114.60. For the same compound, the CREA ([2]; single injection dose 2 mg/kg) was 17.13 ± 3.30, the UA ([2]; single injection dose 2 mg/kg) was 171.93 ± 1.10 and the UREA ([2]; single injection dose 2 mg/kg) was 6.84 ± 0.29. The ALP ([2]; single injection dose 10 mg/kg) was 175.93 ± 95.23, the ALT ([2]; single injection dose 10 mg/kg) was 54.87 ± 3.50 and the AST ([2]; single injection dose 10 mg/kg) was 100.13 ± 28.26. The CREA ([2]; single injection dose 10 mg/kg) was 11.60 ± 1.60, the UA ([2]; single injection dose 10 mg/kg) was 47.57 ± 14.59 and the UREA ([2]; single injection dose 10 mg/kg) was 6.84 ± 0.94. For the same compound, the ALP ([2]; single injection dose 50 mg/kg) was 226.47 ± 65.98, the ALT ([2]; single injection dose 50 mg/kg) was 48.27 ± 2.77 and the AST ([2]; single injection dose 50 mg/kg) was 141.83 ± 50.47. The CREA ([2]; single injection dose 50 mg/kg) was 12.13 ± 1.12, the UA ([2]; single injection dose 50 mg/kg) was 55.77 ± 13.47 and the UREA ([2]; single injection dose 50 mg/kg) was 9.19 ± 1.02. For the same compound, the ALP ([2]; single oral dose 5 mg/kg) was 208.57 ± 19.55, the ALT ([2]; single oral dose 5 mg/kg) was 49.70 ± 5.25 and the AST ([2]; single oral dose 5 mg/kg) was 209.40 ± 69.21. For the same compound, the CREA ([2]; single oral dose 5 mg/kg) was 10.34 ± 0.87, the UA ([2]; single oral dose 5 mg/kg) was 72.27 ± 18.54 and the UREA ([2]; single oral dose 5 mg/kg) was 6.70 ± 0.12. The ALP ([2]; single oral dose 50 mg/kg) was 299.77 ± 72.56, the ALT ([2]; single oral dose 50 mg/kg) was 61.30 ± 1.30 and the AST ([2]; single oral dose 50 mg/kg) was 269.23 ± 67.81. It also gave a CREA ([2]; single oral dose 50 mg/kg) of 12.50 ± 2.78, a UA ([2]; single oral dose 50 mg/kg) of 124.17 ± 19.83 and a UREA ([2]; single oral dose 50 mg/kg) of 6.53 ± 0.65. For the same compound, the ALP ([2]; single oral dose 300 mg/kg) was 266.97 ± 26.38, the ALT ([2]; single oral dose 300 mg/kg) was 44.63 ± 11.95 and the AST ([2]; single oral dose 300 mg/kg) was 277.57 ± 160.53. It also gave a CREA ([2]; single oral dose 300 mg/kg) of 12.90 ± 1.61, a UA ([2]; single oral dose 300 mg/kg) of 128.03 ± 33.61 and a UREA ([2]; single oral dose 300 mg/kg) of 7.80 ± 1.27. The “blood parameters ALT, AST, ALP, CREA, UA, UREA vs control” value ([2]; single oral and injection doses) was “no significant difference”, the “AUC (0-t) / bioavailability relative to CU” value ([3]; oral) was 6.23 fold and the “MRT (0-t) / mean residence time relative to CU” value ([3]; oral) was 3.35 fold. For the same compound, the “biological half-life relative to CU” value ([3]; oral) was 2.38 fold, the “time after dosing until cleared from / still detected in plasma” value ([3]; oral 50 mg kg^−1) was over 8 h and the “AUC(0-t)” value ([3]; oral (gavage) 50 mg kg^−1) was 222,562.75 μg/L*min. It also gave a CLz ([3]; oral (gavage) 50 mg kg^−1) of 190 mL/min/kg, a Vz ([3]; oral (gavage) 50 mg kg^−1) of 49.53 L/kg and a Cmax ([3]; male, Sprague Dawley, rat, plasma, oral (gavage) 50 mg kg^−1) of 1360 ng/mL. It also gave an MRT last ([3]; male, Sprague Dawley, rat, plasma, oral (gavage) 50 mg kg^−1, read-out: MRT(0-t) (converted)) of 3.02 h, a Tmax ([3]; male, Sprague Dawley, rat, plasma, oral (gavage) 50 mg kg^−1, read-out: Tmax (converted)) of 0.167 h and a half-life ([3]; male, Sprague Dawley, rat, plasma, oral (gavage) 50 mg kg^−1, read-out: t1/2z) of 2.98 h. It also gave an IC50 ([4]; 24 h) of 4.26 ± 0.52 µM, an IC50 ([4]; 48 h) of 1.96 ± 0.09 µM and a tumor inhibition rate ([5]; Caco-2 xenograft nude mice, 100 mg/kg via gavage every other day) of 63.93%. For the same compound, the “HE staining of tumor mass” value ([5]; Caco-2 xenograft, 100 mg/kg) was “large necrotic area in the tumor mass”, the “inhibitory effect on tumor growth” value ([5]; Caco-2 xenograft, CA8 100 mg/kg, CU 100 mg/kg, tegafur 50 mg/kg, gavage every other day) was “more significant inhibitory effect on tumor growth than CU and tegafur” and the “body weight change / toxicity during therapy” value ([5]; nude mice, 13 days of therapy, 100 mg/kg gavage) was “did not lead to a significant toxicity”. The IC50 ([6]; HepG2, 24 h) was 1.79 ± 1.32 µM and the IC50 ([6]; HepG2, 48 h) was 1.84 ± 0.33 µM.
